Earlier results in patent US10786531B2, “Mineral salt-sulfonic acid compositions and methods of use” (BMG PHARMA SPA, priority 2009, dated 2020).
Like-named read-outs stand apart in the source and are kept apart here.

Columns and labels:
[1] = solutions of 0.2-1%

Compound | dermal irritancy (dermal abrasion; 1% aqueous) | dermal irritancy (dermal abrasion; 20% suspension) | further results
[Cl-].[Cl-].[Zn+2] [zinc chloride] | severe irritant | – | –
zinc pyrithione | – | not overtly irritant | –
[O]=[Zn] [zinc oxide] | – | not overtly irritant | –
CC(=O)[O-].CC(=O)[O-].[Zn+2] [zinc acetate] | – | – | dermal irritancy (dermal abrasion; 20% aqueous): slightly less irritant
O=S(=O)([O-])[O-].[Zn+2] [zinc sulfate] | not overtly irritant | – | irritation when applied circumorally [1]: severe irritation
